“Also recorded” adds a separate entry of the source. Where two headings read alike, the source gives them in different places.
B1: Miraculin (protein, UniProt P13087 30-220, looked up)
Miraculin: DSAPNPVLDIDGEKLRTGTNYYIVPVLRDHGGGLTVSATTPNGTFVCPPRVVQTRKEVDHDRPLAFFPENPKEDVVRVSTDLNINFSAFMPCRWTSSTVWRLDKYDESTGQYFVTIGGVKGNPGPETISSWFKIEEFCGSGFYKLVFCPTVCGSCKVKCGDVGIYIDQKGRRRLALSDKPFAFEFNKTVYF

How the values were obtained:
[1] = tested on: sweet taste (10% sucrose reference); test: Duration of sweet taste blockade: sensory panelist rates sweetness intensity (SI) of 10% sucrose after 5 min oral exposure to sample; type: in vivo, human; details: for SI: 0-10 scale, 10% sucrose=10; for sweet taste inhibition following exposure of the oral cavity (in words): in vivo
Method: A standard method was developed to quantify the duration of sweet taste blockade for the gymnemic acid compositions of the present invention. […] In all cases, sucrose was used as the sweetener in sweet taste blockade quantification. Thus, 10%, 8%, 6%, 4%, and 2% (w/v) sucrose solutions in reverse osmosis (RO) purified water were freshly prepared and, at the beginning of each experiment, 15 mL samples of each sucrose solution were used to calibrate sensory panelist on sweetness intensity. The sensory panelist is described as a person with training in sensory evaluation with at least 1 year of experience as a sensory panelist in the area of gustatation, and preferably with training in descriptive analysis. Standard scaling methodology was used for quantification of sweetness intensity (SI) on the following scale: • 10% sucrose=10, • 8% sucrose=8, • 6% sucrose=6, • 4% sucrose=4, • 2% sucrose=2, and • 0% sucrose=0.
Following panelist calibration with the sucrose reference standards, the panelist rinsed their mouth with 15 mL RO water and the sweetness inhibitor sample in 15 mL RO water was then immediately taken into the mouth and gently agitated for 5 minutes. The sweet taste inhibitor sample was then expectorated and a 15 mL sample of the 10% sucrose reference solution was then immediately re-tasted, perceived SI within 15 seconds was rated on the 0-10 scale, the sample expectorated, and the mouth rinsed vigorously with 15 mL RO water. The 10% sucrose sample was then re-tasted every 15 min and SI rated. The panelist was asked to make comments on the observations of non-sweet taste attributes at each sucrose reference tasting interval.

[2] = tested on: bitter taste of bitter compounds (quinine, denatonium benzoate, tetralone, sucrose octaacetate, pseudoephedrine, dextromethorphan); details: cited from earlier work
[3] = 10% sucrose re-tasted at 15 min
[4] = 10% sucrose re-tasted at 30 min
[5] = 10% sucrose re-tasted at 45 min
[6] = 10% sucrose re-tasted at 60 min
[7] = 10% sucrose re-tasted at 75 min
[8] = 10% sucrose re-tasted at 90 min
[9] = 10% sucrose re-tasted at 105 min
[10] = 10% sucrose re-tasted at 120 min
[11] = 10% sucrose tasted at 0 min after expectoration of sample (in 15 mL RO water, held 5 min)

| Molecule | SI [1, 3] | SI [1, 4] | SI [1, 5] | SI [1, 6] | SI [1, 7] | SI [1, 8] | SI [1, 9] | SI [1, 10] | SI [1, 11] | sweet taste inhibition following exposure of the oral cavity (in words) [1] | bitterness inhibitory activity ([2]; against denatonium benzoate) | bitterness inhibitory activity ([2]; against dextromethorphan) | bitterness inhibitory activity ([2]; against pseudoephedrine) | bitterness inhibitory activity ([2]; against quinine) | bitterness inhibitory activity ([2]; against sucrose octaacetate) | bitterness inhibitory activity ([2]; against tetralone) | inhibition of the bitterness of quinine hydrochloride (QHCl) ([2]; up to) |
| --- | --- | --- | --- | --- | --- | --- | --- | --- | --- | --- | --- | --- | --- | --- | --- | --- | --- |
| COc1ccc(OC(C)C(=O)O)cc1 (stereo not drawn) [Lactisole] | 10 | 10 | 10 | 10 | 10 | 10 | 10 | 10 | 12 | no sweet taste inhibition was observed; also recorded: caused no sweetness inhibition following expectoration |  |  |  |  |  |  |  |
| O=S(=O)([O-])[O-].[Zn+2] [zinc sulfate] |  |  |  |  |  |  |  |  |  |  | effective bitterness inhibitor | no significant bitterness inhibitory activity | no significant bitterness inhibitory activity | effective bitterness inhibitor | no significant bitterness inhibitory activity | effective bitterness inhibitor | up to 70% |
| B1 | 10 | 10 | 10 | 10 | 10 | 10 | 10 | 10 | 10 | No sweet taste inhibitory effect was observed |  |  |  |  |  |  |  |
